Read-outs that look alike come from different tables or passages of the source.

In one test the target is cyclophilin. Nature of the test: Cis-trans isomerase inhibitory activity (chymotrypsin-coupled Suc-AAPF-pNA cleavage, absorbance 390 nm). The format is biochemical. Particulars: cyclophilin, chymotrypsin, Suc-AAPF-pNA; read-out: Test Example 1: cis-trans isomerase inhibitory activity (IC50). An excerpt: Chymotrypsin cleaves a trans-type alanine-proline peptide bond. When Suc-AAPF-pNA (a peptide substrate) and chymotrypsin are mixed, the trans-type peptide substrate is cleaved and the cis-type peptide substrate remains. The remaining cis-type peptide substrate is converted into a trans form by a cis-trans isomerase and is then cleaved again by chymotrypsin. When the cis-trans isomerase is present, chymotrypsin is able to cleave a larger amount of trans-type peptide substrate within a predetermined period of time, from which the activity of the cis-trans isomerase may be determined. The amount of the cleaved trans-type peptide substrate is measured using absorbance at 390 nm. Cyclophilin has cis-trans isomerase activity, and accelerates the cleavage of trans-type peptide substrate by chymotrypsin. When the stilbene derivatives of the present invention were treated together with cyclophilin, the cleavage of the peptide substrate by chymotrypsin was not observed to accelerate. Thereby, the stilbene derivatives of the invention can be concluded to inhibit the activity of cyclophilin.

The next test relates to hepatitis C virus. Nature of the test: Antiviral activity in HCV replicon cells (Renilla luciferase). The format is cell-based. Particulars: read-out: Test Example 3: antiviral activity (EC50). As to the method:
The antiviral activity of the stilbene derivatives on hepatitis C virus was measured. The replicon cells that stably replicate the hepatitis C virus genome were attached to a culture plate and cultured in a CO2 incubator at 37° C. for 24 hr. The replicon cells cultured for one day were washed with a PBS solution, treated with the compounds of the present invention, and then cultured for 72 hr. The stilbene derivative-treated replicon cells were washed with a cold PBS solution and added with 20 μL of a cell lysis solution so that the cells were lysed in ice for 20 min. 100 μL of a Renilla luciferase substrate was added thereto, after which the luminescence thereof was measured and thus the amount of the hepatitis C virus genome was estimated. The amount of the hepatitis C virus genome in the stilbene derivative-treated replicon cells according to the present invention relative to the amount of the hepatitis C virus genome in dimethylsulfoxide (DMSO)-treated replicon cells is shown.
Compounds 1 to 155 of Tables 1 to 10 may be grouped as follows based on the antiviral activity (EC50) values: […]

Test [1] relates to mitochondria obtained from hepatocytes. Nature of the test: Inhibitory activity on calcium-induced mitochondrial swelling (absorbance 520 nm). Particulars: read-out: Test Example 4: inhibiting mitochondrial swelling (IC50). An excerpt:
Cyclophilin is a key protein for forming permeability transition pores (PTP) in mitochondria. When permeability transition pores are formed, mitochondria swell, whereby the outer membrane thereof ruptures and thus cell death progresses. Such mitochondrial dysfunction causes many diseases including neurodegenerative diseases, cancer, and the like. Cyclosporine, a known cyclophilin inhibitor, is capable of preventing the formation of permeability transition pores to thus suppress mitochondrial swelling.
The mitochondrial swelling test was performed as follows. Specifically, the hepatocytes were disrupted using a Dounce tissue grinder. The disrupted cells were centrifuged at 700×g for 10 min and the supernatant was transferred into a new tube. The supernatant was centrifuged at 12,000×g for 15 min, thereby obtaining mitochondria.
When the extracted mitochondria were added with calcium, they swelled, which may be observed by measuring the absorbance at 520 nm. The stilbene derivatives are effective at inhibiting mitochondrial swelling due to calcium.
The activity of Compounds 1 to 155 of Tables 1 to 10 on inhibiting mitochondrial swelling may be determined based on IC50 values, and may be grouped as follows: […]

Setting [2] is: Hepatitis C virus, HCV replicon cells, 72 hr, Renilla luciferase, relative to DMSO.
The mark [3] stands for this setting: Hepatocyte, calcium-induced swelling of extracted mitochondria.
[4] abbreviates: HCV replicon cells, 72 hr, Renilla luciferase, relative to DMSO.
The mark [5] stands for this setting: calcium-induced swelling of extracted mitochondria.

For `N#CC(=Cc1ccccc1C(=O)O)c1ccc(CC2CCCCC2)cc1` [Compound 59], the values for the IC50 (on cyclophilin; in test [1] (setting [3])) were not above 0.02 µM and less than 5 µM, respectively. Besides, in the test on hepatitis C virus (setting [2]), the EC50 is less than 0.5 µM.
Taken in the same sequence, the figures for `COC(=O)c1ccccc1C=Cc1ccc(CC2CCCCC2)cc1` [Compound 127] were 0.02 to 0.2 µM, 5 to 50 µM and 0.5 to 5 µM.
As for `CCCOC(=O)c1ccccc1C=Cc1ccc(CC(C)(C)C)cc1` [Compound 71], the IC50 on cyclophilin is not above 0.02 µM; in test [1] (setting [3]) it was less than 5 µM. In addition, the EC50 with hepatitis C virus (setting [2]) is less than 0.5 µM.
With `CC(C)(C)C(=O)c1ccc(C(C#N)=Cc2ccccc2C(=O)O)cc1` [Compound 15], the half-inhibitory concentration (IC50) on cyclophilin was in the range of 0.2 to 2 µM; in test [1] (setting [5]), 50 to 500 µM. For the same compound, the 50% effective concentration (EC50) in the test with hepatitis C virus (setting [4]) was in the range of 5 to 50 µM.
Regarding `CCCCOC(=O)c1c(C)cccc1C=C(N)c1ccc(CC(C)(C)C)cc1` [Compound 99], the results for the IC50 (at cyclophilin; in test [1] (setting [3])) were 0.02 to 0.2 µM and 5 to 50 µM, respectively. The 50% effective concentration (EC50) in the test with hepatitis C virus (setting [2]) fell in the range of 0.5 to 5 µM.
For `CC(C)OC(=O)c1ccccc1C=C(Br)c1ccc(CC(C)(C)C)cc1` [Compound 118], the IC50 is not above 0.02 µM at cyclophilin and less than 5 µM in test [1] (setting [3]). Besides, the EC50 in the test with hepatitis C virus (setting [2]) is less than 0.5 µM.
For `N#CC(=Cc1ccccc1CCc1cccc(Cl)c1)c1ccc([N+](=O)[O-])cc1` [Compound 47] the same measures were 0.02 to 0.2 µM, 5 to 50 µM and 0.5 to 5 µM.
Taken in the same sequence, the figures for `CCCCOC(=O)c1c(C=C(C)c2ccc(CC(C)(C)C)cc2)ccc(C)c1C` [Compound 86] were 0.02 to 0.2 µM, 5 to 50 µM and 0.5 to 5 µM.
For `N#CC(=Cc1ccccc1CCc1ccccc1)c1ccc([N+](=O)[O-])cc1` [Compound 38], the IC50 fell in the range of 0.02 to 0.2 µM at cyclophilin and 5 to 50 µM in test [1] (setting [3]). Moreover, the EC50 with hepatitis C virus (setting [2]) was in the range of 0.5 to 5 µM.
On to `CCCCOC(=O)c1c(C=Cc2ccc(CC(C)(C)C)cc2)ccc(C)c1C` [Compound 70], for which the IC50 lay within 0.02 to 0.2 µM at cyclophilin and 5 to 50 µM in test [1] (setting [3]). For the same compound, the EC50 in the test with hepatitis C virus (setting [2]) fell in the range of 0.5 to 5 µM.
Turning to `CC(C)(C)Cc1ccc(C=Cc2ccccc2C(=O)OCc2ccccc2)cc1` [Compound 76], the IC50 was not above 0.02 µM at cyclophilin and less than 5 µM in test [1] (setting [3]). Also, in the test on hepatitis C virus (setting [2]), the EC50 is less than 0.5 µM.
Taken in the same sequence, the figures for `CCCCOC(=O)c1ccccc1C=Cc1ccc(CC(C)(C)C)cn1` [Compound 143] were 0.02 to 0.2 µM, 5 to 50 µM and 0.5 to 5 µM.
Taken in the same sequence, the figures for `CCCCOC(=O)c1ccccc1C=C(C)c1ccc(CC(C)(C)C)cc1` [Compound 82] were 0.02 to 0.2 µM, 5 to 50 µM and 0.5 to 5 µM.
For `CC(C)(C)Cc1ccc(C=Cc2ccccc2C(=O)OCC2CCCCN2)cc1` (stereo not drawn) [Compound 75], the half-maximal inhibitory concentration (IC50) at cyclophilin fell in the range of 0.02 to 0.2 µM; in test [1] (setting [3]) it was 5 to 50 µM. The EC50 in the test with hepatitis C virus (setting [2]) fell in the range of 0.5 to 5 µM.
As for `CCCCOC(=O)c1ccccc1C=C(C)c1ccc(CC(C)(C)C)cc1C` [Compound 84], the IC50 lay within 0.02 to 0.2 µM at cyclophilin and 5 to 50 µM in test [1] (setting [3]). Moreover, the EC50 in the test on hepatitis C virus (setting [2]) lay within 0.5 to 5 µM.
For `COc1ccccc1C=C(C#N)c1ccc(C(C)(C)C)cc1` [Compound 11] the same measures were 0.2 to 2 µM, 50 to 500 µM and 5 to 50 µM.
Taken in the same sequence, the figures for `CC(C)(C)CCc1ccccc1C=C(C#N)c1ccc([N+](=O)[O-])cc1` [Compound 43] were 0.02 to 0.2 µM, 5 to 50 µM and 0.5 to 5 µM.
Taken in the same sequence, the figures for `CCOc1ccc(C(C#N)=Cc2ccccc2OC)cc1` [Compound 16] were 0.2 to 2 µM, 50 to 500 µM and 5 to 50 µM.
On to `COc1ccccc1CCc1ccccc1C=C(C#N)c1ccc([N+](=O)[O-])cc1` [Compound 49], for which the values for the half-inhibitory concentration (IC50) (on cyclophilin; in test [1] (setting [3])) were 0.2 to 2 µM and 50 to 500 µM, respectively. For the same compound, the EC50 with hepatitis C virus (setting [2]) was in the range of 5 to 50 µM.
For `CC(C)(C)c1ccc(CCc2ccccc2C=C(C#N)c2ccc([N+](=O)[O-])cc2)cc1` [Compound 45] the same measures were 0.02 to 0.2 µM, 5 to 50 µM and 0.5 to 5 µM.
On to `CC(C)(C)Cc1ccc(C(N)=Cc2ccccc2C(=O)OC2CCCCC2)cc1` [Compound 107], for which the IC50 on cyclophilin lay in the range of 0.02 to 0.2 µM; in test [1] (setting [3]), 5 to 50 µM. The EC50 in the test on hepatitis C virus (setting [2]) lay in the range of 0.5 to 5 µM.
As for `N#CC(=Cc1ccccc1C1CCCCC1)c1ccc([N+](=O)[O-])cc1` [Compound 31], the IC50 was in the range of 0.02 to 0.2 µM at cyclophilin and 5 to 50 µM in test [1] (Hepatocyte). In addition, the EC50 in the test with hepatitis C virus (Hepatitis C virus, 72 h) was 0.5 to 5 µM.
Take `COc1ccccc1C=C(C#N)c1ccc(C(=O)C(C)(C)C)cc1` [Compound 14]: the results for the IC50 (at cyclophilin; in test [1] (setting [3])) were 0.02 to 0.2 µM and 5 to 50 µM, respectively. Moreover, the concentration giving a half-maximal response (EC50) in the test on hepatitis C virus (setting [2]) was in the range of 0.5 to 5 µM.
For `N#CC(=Cc1ccccc1CCC1CCCCC1)c1ccc([N+](=O)[O-])cc1` [Compound 39] the same measures were not above 0.02 µM, less than 5 µM and less than 0.5 µM.
Take `CC(C)C(C)Cc1ccc(C(C#N)=Cc2ccccc2C(=O)O)cc1` (stereo not drawn) [Compound 58]: the IC50 on cyclophilin lay in the range of 0.02 to 0.2 µM; in test [1] (setting [3]), 5 to 50 µM. Moreover, in the test on hepatitis C virus (Hepatitis C virus, 72 h), the EC50 is 0.5 to 5 µM.
Consider `CCCCOC(=O)c1ccccc1C=Cc1ccc(CC(C)(C)C)cc1C` [Compound 67], for which the IC50 lay within 0.02 to 0.2 µM on cyclophilin and 5 to 50 µM in test [1] (setting [3]). Also, in the test with hepatitis C virus (setting [2]), the EC50 lay in the range of 0.5 to 5 µM.
For `CC(C)(C)Cc1ccc(C=Cc2ccc(N)cc2C(=O)O)cc1` [Compound 138] the same measures were not above 0.02 µM, less than 5 µM and less than 0.5 µM.
Taken in the same sequence, the figures for `CCCCOc1ccc(C(C#N)=Cc2ccccc2OC)cc1` [Compound 18] were 0.02 to 0.2 µM, 5 to 50 µM and 0.5 to 5 µM.
Taken in the same sequence, the figures for `N#CC(=Cc1ccccc1CCCC1CCCCC1)c1ccc([N+](=O)[O-])cc1` [Compound 40] were not above 0.02 µM, less than 5 µM and less than 0.5 µM.
`CCc1ccc(C(C#N)=Cc2ccccc2C(=O)O)cc1` [Compound 2]: the IC50 on cyclophilin fell in the range of 0.2 to 2 µM; in test [1] (setting [5]), 50 to 500 µM. Besides, in the test with hepatitis C virus (setting [4]), the 50% effective concentration (EC50) was in the range of 5 to 50 µM.
For `CC(C)C(C)c1ccc(C(C#N)=Cc2ccccc2C(=O)O)cc1` (stereo not drawn) [Compound 55], the IC50 on cyclophilin is 0.02 to 0.2 µM; in test [1] (setting [3]), 5 to 50 µM. Besides, in the test on hepatitis C virus (setting [2]), the EC50 lay within 0.5 to 5 µM.
`CCCCOC(=O)c1cc(C)ccc1C=C(I)c1ccc(CC(C)(C)C)cc1` [Compound 115]: the IC50 on cyclophilin is not above 0.02 µM; in test [1] (setting [3]) it was less than 5 µM. The EC50 with hepatitis C virus (setting [2]) was less than 0.5 µM.
As for `CCC(C)c1ccc(C(C#N)=Cc2ccccc2C(=O)O)cc1` (stereo not drawn) [Compound 9], the half-inhibitory concentration (IC50) lay in the range of 0.02 to 0.2 µM on cyclophilin and 5 to 50 µM in test [1] (setting [5]). The EC50 in the test on hepatitis C virus (setting [4]) was 0.5 to 5 µM.
Take `CCCCOC(=O)c1ccccc1C=C(N)c1ccc(CC(C)CC)cc1` (stereo not drawn) [Compound 108]: the results for the IC50 (on cyclophilin; in test [1] (setting [3])) were 0.02 to 0.2 µM and 5 to 50 µM, respectively. Further, the EC50 in the test on hepatitis C virus (setting [2]) is 0.5 to 5 µM.
Taken in the same sequence, the figures for `CCCCOC(=O)c1cc(C)ccc1C=C(N)c1ccc(CC(C)(C)C)cc1` [Compound 101] were 0.02 to 0.2 µM, 5 to 50 µM and 0.5 to 5 µM.
Taken in the same sequence, the figures for `N#CC(=Cc1ccccc1CCc1ccccc1Cl)c1ccc([N+](=O)[O-])cc1` [Compound 46] were 0.02 to 0.2 µM, 5 to 50 µM and 0.5 to 5 µM.
With `CCCCOC(=O)c1ccccc1C=C(I)c1ccc(Cc2ccccc2)cc1` [Compound 123], the values for the IC50 (on cyclophilin; in test [1] (setting [3])) were 0.02 to 0.2 µM and 5 to 50 µM, respectively. Also, the EC50 in the test on hepatitis C virus (Hepatitis C virus, 72 h) is 0.5 to 5 µM.

The values are drawn from US11286228B2, “Stilbene derivative and method for preparing same” (Ozchela Inc., priority 2016, dated 2022).
